Laboratory results taken from the supplement of paper PMC10307832.

Columns and labels:
Assay in all cases: relative viability (nuclei count vs DMSO), 5 days (fraction); higher = more cells survive
[1] = compound: O=C(NCCCNc1nc(Nc2cccc(NC(=O)N3CCCC3)c2)ncc1I)c1cccs1 [BX 795] + CC(=O)c1c(C)c2cnc(Nc3ccc(N4CCNCC4)cn3)nc2n(C2CCCC2)c1=O [Palbociclib] (partner 0.5 µM)
Procedure, shortened: (§1)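 A single step with final 0.05% Triton X-100, 1% formaldehyde and 1 ug/ml Hoechst fixed the cells and stained nuclei 5 days after treatment. Lung cancer cell lines in 1536-well plates had been treated by pin tool the day after seeding with one drug alone or a fixed anchor-drug dose plus five library-drug doses (not always all listed) in √10 steps, and nuclei were counted on 4× images. Relative viability is the ratio of nuclei in treated wells to nuclei in vehicle wells, taken as the median of duplicate plates.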

[2] = compound: O=C(NCCCNc1nc(Nc2cccc(NC(=O)N3CCCC3)c2)ncc1I)c1cccs1 [BX 795] + C[C@]1(O)C[C@@H](c2nc(-c3ccc4ccc(-c5ccccc5)nc4c3)c3c(N)nccn32)C1 [Linsitinib] (partner 1 µM)
Procedure, shortened: as §1

[3] = compound: O=C(NCCCNc1nc(Nc2cccc(NC(=O)N3CCCC3)c2)ncc1I)c1cccs1 [BX 795] + Cc1cc(Nc2cc(N3CCN(C)CC3)nc(Sc3ccc(NC(=O)C4CC4)cc3)n2)n[nH]1 [Tozasertib] (partner 0.1 µM)
Procedure, shortened: as §1

[4] = compound: O=C(NCCCNc1nc(Nc2cccc(NC(=O)N3CCCC3)c2)ncc1I)c1cccs1 [BX 795] + Cc1nc(Nc2ncc(C(=O)Nc3c(C)cccc3Cl)s2)cc(N2CCN(CCO)CC2)n1 [Dasatinib] (partner 0.075 µM)
Procedure, shortened: as §1

[5] = compound: O=C(NCCCNc1nc(Nc2cccc(NC(=O)N3CCCC3)c2)ncc1I)c1cccs1 [BX 795] + Nc1ncn([C@H]2C[C@H](O)[C@@H](CO)O2)c(=O)n1 [Decitabine] (partner 2 µM)
Procedure, shortened: as §1

| Cell Line | relative viability ([1]; first compound 0.04 µM) | relative viability ([1]; first compound 0.1265 µM) | relative viability ([1]; first compound 0.4 µM) | relative viability ([1]; first compound 1.265 µM) | relative viability ([2]; first compound 0.04 µM) | relative viability ([2]; first compound 0.1265 µM) | relative viability ([2]; first compound 0.4 µM) | relative viability ([2]; first compound 1.265 µM) | relative viability ([3]; first compound 0.04 µM) | relative viability ([3]; first compound 0.1265 µM) | relative viability ([3]; first compound 0.4 µM) | relative viability ([3]; first compound 1.265 µM) | relative viability ([4]; first compound 0.04 µM) | relative viability ([4]; first compound 0.1265 µM) | relative viability ([4]; first compound 0.4 µM) | relative viability ([4]; first compound 1.265 µM) | relative viability ([5]; first compound 0.04 µM) | relative viability ([5]; first compound 0.1265 µM) | relative viability ([5]; first compound 0.4 µM) | relative viability ([5]; first compound 1.265 µM) |
| --- | --- | --- | --- | --- | --- | --- | --- | --- | --- | --- | --- | --- | --- | --- | --- | --- | --- | --- | --- | --- |
| NCI-H1666 | 0.536 | 0.641 | 0.7 | 0.657 | 0.777 | 1.07 | 1.05 | 0.74 | 0.642 | 0.69 | 0.599 | 0.403 | 0.847 | 0.851 | 0.736 | 0.569 | 0.925 | 0.69 | 0.785 | 0.686 |
| NCI-H1734 | 0.404 | 0.377 | 0.35 | 0.354 | 0.915 | 0.968 | 0.861 | 0.761 | 0.243 | 0.23 | 0.238 | 0.216 | 0.446 | 0.465 | 0.474 | 0.398 | 0.582 | 0.613 | 0.545 | 0.504 |
| NCI-H1755 | 0.493 | 0.43 | 0.458 | 0.441 | 1.04 | 0.93 | 1.01 | 0.689 | 0.681 | 0.481 | 0.553 | 0.508 | 0.432 | 0.468 | 0.465 | 0.353 | 0.796 | 0.645 | 0.885 | 0.704 |
| NCI-H1793 | 0.386 | 0.246 | 0.384 | 0.296 | 0.874 | 1.06 | 1.01 | 0.507 | 0.372 | 0.326 | 0.375 | 0.213 | 0.408 | 0.403 | 0.361 | 0.356 | 0.589 | 0.443 | 0.674 | 0.374 |
| NCI-H1915 | 0.63 | 0.501 | 0.637 | 0.485 | 1.16 | 1.09 | 1.08 | 1.02 | 0.473 | 0.413 | 0.405 | 0.241 | 0.323 | 0.285 | 0.306 | 0.29 | 0.292 | 0.225 | 0.309 | 0.245 |
| NCI-H1944 | 0.381 | 0.33 | 0.411 | 0.325 | 1.25 | 1.36 | 1.14 | 1.1 | 0.286 | 0.236 | 0.302 | 0.243 | 0.241 | 0.219 | 0.201 | 0.194 | 0.471 | 0.497 | 0.534 | 0.408 |
| NCI-H1975 | 0.758 | 0.712 | 0.509 | 0.526 | 0.83 | 1.04 | 0.977 | 0.659 | 0.707 | 0.794 | 0.623 | 0.234 | 0.346 | 0.433 | 0.401 | 0.289 | 0.434 | 0.472 | 0.35 | 0.359 |
| NCI-H1993 | 0.67 | 0.744 | 0.671 | 0.642 | 0.628 | 0.732 | 0.713 | 0.696 | 0.582 | 0.553 | 0.527 | 0.55 | 0.454 | 0.56 | 0.472 | 0.525 | 0.65 | 0.602 | 0.719 | 0.652 |
